# Results: US10564150B2, “Cell mediated immune response assay” (priority 2012, dated 2020)
# Assays:
# [1] = test system: whole blood from donors; IFN-gamma response to CMV antigens; experiment: QFN CMV assay with four different non-reducing sugars; assay type: cell-based, human; conditions: for response to the CMV antigens (percentage increase in IFN-gamma IU/ml over the non-additive tube): 2 mg/ml final blood concentration, 5 donors, background subtracted
# Description: For this experiment, four different non-reducing sugars were added to QFN CMV antigen tubes and a corresponding Nil tube. To reach a final blood concentration of 2 mg/ml, a corresponding solution of sucrose, trehalose, mannitol and raffinose in PBS was added to whole blood obtained from 5 donors. […] The assay was run in accordance with the QFN package insert which is an established assay. The x-axis (see FIG. 3) indicates the tested conditions. The background (value from Nil tubes with/without the addition of the respective sugar) was subtracted from the corresponding CMV tube and the percentage increase in the IFN-gamma value (IU/ml) over the non-additive tube calculated (y axis).
# [2] = test system: whole blood IFN-gamma response to EBNA-1 from the Epstein-Barr virus; experiment: QuantiFERON assay measuring anti-EBV cellular immune responses (EBNA-1 peptides) plus/minus trehalose; assay type: cell-based
# Description: Investigations using QuantiFERON technology to measure responses to the model antigen EBNA-1 from the Epstein-Barr virus were performed to assess increases in assay sensitivity induced by the addition of non-reducing sugars to the incubation mixture. Briefly, EBNA-1 peptides were added to a blood collection tube, plus/minus 3 concentrations of a trehalose solution (0.5, 1.0 or 2.0 mg/ml trehalose). QuantiFERON assay measuring anti-EBV cellular immune responses was run according to the manufacturer's instructions. The IFN-gamma response was determined and compared depending on the concentration of trehalose. […] A concentration of 2 mg/ml trehalose provided the best results in this test assay.
# [3] = test system: blood from healthy donors; CD8+ T cells, IFN-gamma response to Cytomegalovirus peptides; experiment: QFN-CMV assay with addition of trehalose; assay type: cell-based, human
# Description: QuantiFERON (QFN) CMV is a CE registered assay monitoring T cell immune memory directed against antigens derived from the Cytomegalovirus. The QFN-CMV blood tubes contain peptides designed to specifically activate CD8+ T cells to produce interferon gamma (IFN-gamma). These tubes only contain peptide and heparin, with no addition of any sugar molecule.
# This experiment aimed to investigate the effect on the IFN-gamma response when the non-reducing sugar, trehalose, was added to QFN-CMV tubes. 0, 1, 5 or 10 mg/ml of a trehalose (in water) solution was added to QFN-CMV blood collection tubes. 1 ml of blood from 17 healthy donors with a known anti-CMV T cell response was then added to each of the four tubes, and in addition a Nil tube and a Mitogen tube were run as controls. The QFN assay was then run according to the package insert. All values had the Nil value subtracted. IFN-gamma levels in IU/ml were normalized against the respective QFN-CMV+0 mg/ml trehalose (untreated control) to generate a ‘fold-change’ unit; to control for inter-donor variation in response magnitude. Healthy donors without a detectable anti-CMV immune response were included to control against non-specific IFN-gamma induction by trehalose.
# [4] = test system: whole blood from subjects with MTB infection; IFN-gamma response to Mycobacterium tuberculosis antigens ESAT-6 and CFP-10; experiment: QFN-TB antigen tubes manufactured with or without trehalose; assay type: cell-based, human; conditions: trehalose tube versus sugar free tube; 20 subjects with MTB infection; paired one-tailed t test, P=0.0005
smiles,measurement,setting,value
OC[C@H]1O[C@@](CO)(O[C@H]2O[C@H](CO)[C@@H](O)[C@H](O)[C@H]2O)[C@@H](O)[C@@H]1O [sucrose],response to the CMV antigens (percentage increase in IFN-gamma IU/ml over the non-additive tube),[1],increased response
OC[C@H]1O[C@H](O[C@H]2O[C@H](CO)[C@@H](O)[C@H](O)[C@H]2O)[C@H](O)[C@@H](O)[C@@H]1O [trehalose],IFN-gamma response,"[2]; 0.5, 1.0 or 2.0 mg/ml trehalose, with increasing concentration",increase in IFN-gamma response
same,trehalose concentration providing the best results,"[2]; of 0.5, 1.0 and 2.0 mg/ml tested",2 mg/mL
same,mean level of IFN-gamma (fold change versus matched untreated control),"[3]; 0, 1, 5 or 10 mg/ml trehalose, 17 healthy donors with known anti-CMV T cell response, Nil subtracted",concentration-dependent increase
same,"IFN-gamma fold change versus untreated control, significance","[3]; 5 and 10 mg/ml trehalose, Friedmans test with Dunns multiple comparisons test",significant increase
same,background level of IFN-gamma in CMV-negative control donors,"[3]; trehalose added, data not shown",No significant increase
same,"quantitative response of the assay (IFN-gamma IU/ml, nil subtracted)",[4],significantly enhanced
same,response to the CMV antigens (percentage increase in IFN-gamma IU/ml over the non-additive tube),[1],increased response
same,rank of the increase among the four non-reducing sugars,"[1]; 2 mg/ml, order trehalose, mannitol, sucrose, raffinose",highest increase
OC[C@H]1O[C@H](OC[C@H]2O[C@H](O[C@]3(CO)O[C@H](CO)[C@@H](O)[C@@H]3O)[C@H](O)[C@@H](O)[C@@H]2O)[C@H](O)[C@@H](O)[C@H]1O [raffinose],response to the CMV antigens (percentage increase in IFN-gamma IU/ml over the non-additive tube),[1],increased response
OC[C@@H](O)[C@@H](O)[C@H](O)[C@H](O)CO [mannitol],response to the CMV antigens (percentage increase in IFN-gamma IU/ml over the non-additive tube),[1],increased response
